In ChEMBL document CHEMBL5046245, “Identification of Pyruvate Carboxylase as the Cellular Target of Natural Bibenzyls with Potent Anticancer Activity against Hepatocellular Carcinoma via Metabolic Reprogramming” (J Med Chem, 2022):
pIC50: −log10 of the molar value. Activity calls are given as the source filed them.

Assays:
[1] = Inhibition of pyruvate carboxylase in human HCCLM3 cells measured upto 24 hrs by PC assay kit; type: cell-based
[2] = test system: HepG2; assay: Antiproliferative activity against human HepG2 cells assessed as inhibition of cell growth at 10 to 200 nM measured up to 3 days by MTT assay; type: functional, cell-based; details: dose 10-200 nM, time day <=3, TDE = time-dependent effect
[3] = test system: HepG2; assay: Induction of apoptosis in human HepG2 cells assessed as nuclear condensation at 100 nM incubated for 24 hrs by DAPI staining based phase contrast microscopic analysis; type: functional, cell-based
[4] = Toxicity in NCR-nu/nu mouse bearing human HCCLM3 tumor assessed as effect on body weight at 25 to 50 mg/kg, ip administered alternate days for 21 days and measured every three days; type: organism-based; details: in vivo, 504 h, dose 25-50 mg/kg, time 21 day
[5] = test system: HCCLM3; assay: Cytotoxicity against human HCCLM3 cells assessed as reduction in cell viability at 5 to 20 nM incubated for 48 hrs in presence of H2O2 by MTT assay; type: functional, cell-based; details: dose 5-20 nM
[6] = test system: HCCLM3; assay: Antimigratory activity against PC knockout human HCCLM3 cells assessed as suppression of cell migration at 0.5 nM measured after 48 hrs by wound healing assay; type: functional, cell-based
[7] = test system: HepG2; assay: Cytotoxicity against human HepG2 cells assessed as cell viability at 62.5 to 250 nM preincubated for 48 hrs by MTT assay; type: functional, cell-based; details: dose 62.5-250 nM
[8] = test system: HepG2; assay: Effect on cell cycle arrest in human HepG2 cells assessed as decrease in accumulation of cells at G0/G1 phase incubated for 24 hrs by propidium iodide staining based flow cytometry analysis; type: functional; details: dose 20-80 nM
[9] = test system: HepG2; assay: Effect on cell cycle arrest in human HepG2 cells assessed as increase accumulation of cells in G2/M phase at 20 nM measured upto 24 hrs hrs by propidium iodide staining based flow cytometry analysis; type: functional; details: time hrs <=24, TDE = time-dependent effect

COc1ccc(CCc2cc(OC)c(OC)c(OC)c2)cc1O
4.88: pIC50 [1]
Non-Toxic: Activity [4]
active: Activity [2] Tde | Activity [3] | Activity [5] | Activity [6] | Activity [7] | Activity [8] Dose-Dependent Effect | Activity [9] Tde
